From US11464783B2, “Heterocyclic compounds” (Aligos Therapeutics, Inc., priority 2019, dated 2022)

Test system: HBV
Assay: HBV-DNA Antiviral Assay Using HepG2.117 Cells
Assay type: cell-based
Details: intracellular HBV DNA by qPCR, day 4
Description: The following assay procedure describes the HBV antiviral assay, using HepG2.117 cells, which carry a stably integrated genotype D HBV genome under the control of a Tet-off promoter, and intracellular HBV DNA quantification as endpoint. Cell viability is assessed in parallel by measuring the intracellular ATP content using ATPlite (Perkin Elmer).
On day 0, HepG2.117 cells (which are maintained in routine cell culture with doxycycline present in the medium at a final concentration of 1 μg/mL) were seeded in 96-well plates (white with clear bottom) at a density of 2.0×10^4 cells/well (0.1 mL/well) in medium without doxycycline to induce pgRNA transcription and subsequent formation of HBV particles. The cells were incubated at 37° C. and 5% CO2.
On day 1, medium was removed from each well, the test articles were diluted in culture medium without doxcycyline and 100 μL was added to cell culture wells (9 concentrations, 4-fold dilution). For each plate, 6 untreated (merely DMSO) wells were included. The final concentration of DMSO in the culture medium was 2%. Each plate was prepared in duplicate (one for HBV DNA extraction, one for ATPlite measurement). The cells were incubated at 37° C. and 5% CO2 for 3 days.
On day 4, cell viability was assessed using ATPlite and cell lysates were prepared for HBV DNA extraction and subsequent quantification by qPCR.
Medium was removed from each well and 100 μL of 0.33% NP-40 in H2O was added to each well. Plates were sealed, incubated at 4° C. for 5 mins, vortexed extensively and centrifuged briefly. Next, 35 μL of lysate was added to 65 μL QuickExtract DNA Extraction Solution (Epicentre) in a PCR plate for each well. PCR plate was incubated at 65° C. for 6 mins, 98° C. for 2 mins and finally cooled to 4° C. HBV DNA was then quantified by qPCR with HBV-specific primers and probes as specified in Table 2 using the Bio-Rad SSOAdvanced Universal Probes Supermix on a CFX96 machine (Bio-Rad). The PCR cycle program consisted of 95° C. for 3 mins, followed by 40 cycles at 95° C. for 10 sec and 60° C. for 30 sec.
A DNA standard was prepared by dilution of an IDT gBlock corresponding to the amplicon with concentrations ranging from 10^2 to 10^8 copies/input (i.e. per 4 μL) and used to generate a standard curve by plotting Cq values vs. HBV DNA standard concentration. The quantity of HBV DNA in each sample was determined by interpolating from the standard curve.
Cell viability was calculated as follows: % Cell viability=(luminescence value of test sample)/(average luminescence value of 2% DMSO control)×100%. HBV DNA inhibition was calculated as follows: 100−(HBV DNA copy number of test sample)/(average HBV DNA copy number of 2% DMSO control)×100%. No normalization to entecavir was required due to the excellent dynamic window of this assay. The CC50, EC so and EC90 values were determined by dose-response curves fitted by GraphPad Prism using “log (agonist) vs. response—Variable slope”.

[1] = Hepatitis B virus, HepG2.117, 96 h

Structure (SMILES)	EC50 [nM]	EC50 [1] [nM]
CC1(c2ncc(Cc3ccccc3)s2)CN(C(=O)c2ccc(Br)c(Cl)c2)CCS1(=O)=O (racemic) [Compound 36a, (4-bromo-3-chloro-phenyl)-[rac-(2S)-2-(5-benzylthiazol-2-yl)-2-methyl-1,1-dioxo-1,4-thiazinan-4-yl]methanone]	500 to 5000	
CC1(c2ncc(Cc3ccccc3)s2)CN(C(=O)c2ccc(Br)c(Cl)c2)CCS1(=O)=O (racemic) [Compound 36b, (4-bromo-3-chloro-phenyl)-[rac-(2R)-2-(5-benzylthiazol-2-yl)-2-methyl-1,1-dioxo-1,4-thiazinan-4-yl]methanone]	100 to 500	
C[C@@H](c1cnc([C@@]2(F)CN(C(=O)c3ccc(Br)c(Cl)c3)CCS2(=O)=O)s1)c1ccccc1F (racemic) [Compound 42a, (rac-2R)-4-(4-bromo-3-chlorobenzoyl)-2-fluoro-2-[5-[(rac-1R)-1-(2-fluorophenyl)ethyl]-1,3-thiazol-2-yl]-1λ^6-thiomorpholine-1,1-dione]	≤ 100	
C[C@H](c1cnc(C2(F)CN(C(=O)c3ccc(Br)c(Cl)c3)CCS2(=O)=O)s1)c1ccccc1F (mixture of isomers) [Compound 42b, (rac-2R)-4-(4-bromo-3-chlorobenzoyl)-2-fluoro-2-[5-[(rac-1S)-1-(2-fluorophenyl)ethyl]-1,3-thiazol-2-yl]-1λ^6-thiomorpholine-1,1-dione]	≤ 100	
C[C@@H](c1cnc(C2(F)CN(C(=O)c3ccc(Br)c(Cl)c3)CCS2(=O)=O)s1)c1ccccc1F (mixture of isomers) [Compound 42c, (rac-2S)-4-(4-bromo-3-chlorobenzoyl)-2-fluoro-2-[5-[(rac-1R)-1-(2-fluorophenyl)ethyl]-1,3-thiazol-2-yl]-1λ^6-thiomorpholine-1,1-dione]	> 5000	
C[C@H](c1cnc(C2(F)CN(C(=O)c3ccc(Br)c(Cl)c3)CCS2(=O)=O)s1)c1ccccc1F (mixture of isomers) [Compound 42d, (rac-2S)-4-(4-bromo-3-chlorobenzoyl)-2-fluoro-2-[5-[(rac-1S)-1-(2-fluorophenyl)ethyl]-1,3-thiazol-2-yl]-1λ^6-thiomorpholine-1,1-dione]	500 to 5000	
O=C(c1ccc(Br)c(Cl)c1)N1CCS(=O)(=O)C(F)(c2ncc(Cc3ccccc3-c3ncccn3)s2)C1 (racemic) [Compound 44a, (rac-2R)-4-(4-bromo-3-chlorobenzoyl)-2-fluoro-2-(5-[[2-(pyrimidin-2-yl)phenyl]methyl]-1,3-thiazol-2-yl)-1λ^6-thiomorpholine-1,1-dione]	≤ 100	
O=C(c1ccc(Br)c(Cl)c1)N1CCS(=O)(=O)C(F)(c2ncc(Cc3ccccc3-c3ncccn3)s2)C1 (racemic) [Compound 44b, (rac-2S)-4-(4-bromo-3-chlorobenzoyl)-2-fluoro-2-(5-[[2-(pyrimidin-2-yl)phenyl]methyl]-1,3-thiazol-2-yl)-1λ^6-thiomorpholine-1,1-dione]	500 to 5000	
O=C(c1ccc(Cl)c(F)c1)N1CCS(=O)(=O)C(c2cccs2)C1 (single isomer, unassigned) [Compound 7a, (4-chloro-3-fluoro-phenyl)-[1,1-dioxo-2-(2-thienyl)-1,4-thiazinan-4-yl]methanone]	100 to 500	
O=C(c1ccc(Cl)c(F)c1)N1CCS(=O)(=O)C(c2cccs2)C1 (single isomer, unassigned) [Compound 7b, (4-chloro-3-fluoro-phenyl)-[1,1-dioxo-2-(2-thienyl)-1,4-thiazinan-4-yl]methanone]	500 to 5000	
Cc1cc(Cl)ccc1C(=O)N1CCS(=O)(=O)C(c2cccs2)C1 (single isomer, unassigned) [Compound 12a, (4-chloro-2-methyl-phenyl)-[1,1-dioxo-2-(2-thienyl)-1,4-thiazinan-4-yl]methanone]	> 5000	
Cc1cc(Cl)ccc1C(=O)N1CCS(=O)(=O)C(c2cccs2)C1 (single isomer, unassigned) [Compound 12b, (4-chloro-2-methyl-phenyl)-[1,1-dioxo-2-(2-thienyl)-1,4-thiazinan-4-yl]methanone]	500 to 5000	
O=C(Nc1ccc(F)c(Cl)c1)N1CCS(=O)(=O)C(c2ccccc2)C1 (single isomer, unassigned) [Compound 18a, N-(3-chloro-4-fluoro-phenyl)-1, l-dioxo-2-phenyl-1,4-thiazinane-4-carboxamide]	500 to 5000	
O=C(Nc1ccc(F)c(Cl)c1)N1CCS(=O)(=O)C(c2ccccc2)C1 (single isomer, unassigned) [Compound 18b, N-(3-chloro-4-fluoro-phenyl)-1, l-dioxo-2-phenyl-1,4-thiazinane-4-carboxamide]	> 5000	
O=C(c1ccc(Br)c(Cl)c1)N1CCS(=O)(=O)C(c2ccccc2)C1 (single isomer, unassigned) [Compound 19a, (4-bromo-3-chloro-phenyl)-(1,1-dioxo-2-phenyl-1,4-thiazinan-4-yl)methanone]	100 to 500	
O=C(c1ccc(Br)c(Cl)c1)N1CCS(=O)(=O)C(c2ccccc2)C1 (single isomer, unassigned) [Compound 19b, (4-bromo-3-chloro-phenyl)-(1,1-dioxo-2-phenyl-1,4-thiazinan-4-yl)methanone]	500 to 5000	
C[C@@H]1CS(=O)(=O)[C@](F)(c2ncc(Cc3ccccc3)s2)CN1C(=O)c1ccc(Br)c(Cl)c1 (stereo in doubt) [Compound 47a, (4-bromo-3-chloro-phenyl)-[(rac-2S,5R)-2-(5-benzylthiazol-2-yl)-2-fluoro-5-methyl-1,1-dioxo-1,4-thiazinan-4-yl]methanone]	> 5000	
C[C@@H]1CS(=O)(=O)[C@@](F)(c2ncc(Cc3ccccc3)s2)CN1C(=O)c1ccc(Br)c(Cl)c1 (stereo in doubt) [Compound 47b, (4-bromo-3-chloro-phenyl)-[(rac-2R,5R)-2-(5-benzylthiazol-2-yl)-2-fluoro-5-methyl-1,1-dioxo-1,4-thiazinan-4-yl]methanone]	≤ 100	
C[C@H]1CS(=O)(=O)[C@](F)(c2ncc(Cc3ccccc3)s2)CN1C(=O)c1ccc(Br)c(Cl)c1 (stereo in doubt) [Compound 48a, (4-bromo-3-chloro-phenyl)-[(rac-2S,5S)-2-(5-benzylthiazol-2-yl)-2-fluoro-5-methyl-1,1-dioxo-1,4-thiazinan-4-yl]methanone]	100 to 500	
C[C@H]1CS(=O)(=O)[C@@](F)(c2ncc(Cc3ccccc3)s2)CN1C(=O)c1ccc(Br)c(Cl)c1 (stereo in doubt) [Compound 48b, (4-bromo-3-chloro-phenyl)-[(rac-2R,5S)-2-(5-benzylthiazol-2-yl)-2-fluoro-5-methyl-1,1-dioxo-1,4-thiazinan-4-yl]methanone]	100 to 500	
CC(C)NC(=O)C1CN(C(=O)c2ccc(Br)c(Cl)c2)CCS1(=O)=O (centres unmarked) [Compound 1, 4-(4-bromo-3-chlorobenzoyl)-N-isopropylthiomorpholine-2-carboxamide 1,1-dioxide]		500 to 5000
O=C(Nc1ccccc1)C1CN(C(=O)c2ccc(Br)c(Cl)c2)CCS1(=O)=O (centres unmarked) [Compound 2, 4-(4-bromo-3-chlorobenzoyl)-N-phenylthiomorpholine-2-carboxamide 1,1-dioxide]		500 to 5000
O=C(NCc1ccccc1)C1CN(C(=O)c2ccc(Br)c(Cl)c2)CCS1(=O)=O (centres unmarked) [Compound 3, N-benzyl-4-(4-bromo-3-chlorobenzoyl)thiomorpholine-2-carboxamide 1,1-dioxide]		100 to 500
